Where two headings read alike, the source gives them in different places.
Key:
D1 dopamine receptor = D1 dopamine receptor (Homo sapiens, UniProt P21728); experiment: BRET-based G protein dissociation assay; type: cell-based
D5 dopamine receptor = D5 dopamine receptor (Homo sapiens, UniProt P21918); experiment: BRET-based G protein dissociation assay; type: cell-based
[1] = biological target: T1, ADRa1A (α1A adrenergic receptor) (Homo sapiens, UniProt P35348); experiment: BRET-based G protein dissociation assay; type: cell-based
T1 sequence (P35348 1-466): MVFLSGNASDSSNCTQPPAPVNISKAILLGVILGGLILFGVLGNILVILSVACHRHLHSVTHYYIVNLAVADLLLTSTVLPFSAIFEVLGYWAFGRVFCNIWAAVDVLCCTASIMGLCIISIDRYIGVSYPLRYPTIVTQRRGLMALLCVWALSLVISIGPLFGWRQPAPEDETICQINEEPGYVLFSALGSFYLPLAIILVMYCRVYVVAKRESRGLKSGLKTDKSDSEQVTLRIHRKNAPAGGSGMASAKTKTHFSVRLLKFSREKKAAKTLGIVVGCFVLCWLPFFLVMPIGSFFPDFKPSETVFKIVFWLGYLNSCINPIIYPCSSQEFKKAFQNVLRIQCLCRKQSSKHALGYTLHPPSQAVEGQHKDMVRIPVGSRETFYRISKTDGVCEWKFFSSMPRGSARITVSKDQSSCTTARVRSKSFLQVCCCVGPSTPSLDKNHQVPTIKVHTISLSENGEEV

[2] = biological target: ADRa2A (α2A adrenergic receptor) (Homo sapiens, UniProt P08913); experiment: BRET-based G protein dissociation assay; type: cell-based
ADRa2A (α2A adrenergic receptor), sequence (P08913 whole entry): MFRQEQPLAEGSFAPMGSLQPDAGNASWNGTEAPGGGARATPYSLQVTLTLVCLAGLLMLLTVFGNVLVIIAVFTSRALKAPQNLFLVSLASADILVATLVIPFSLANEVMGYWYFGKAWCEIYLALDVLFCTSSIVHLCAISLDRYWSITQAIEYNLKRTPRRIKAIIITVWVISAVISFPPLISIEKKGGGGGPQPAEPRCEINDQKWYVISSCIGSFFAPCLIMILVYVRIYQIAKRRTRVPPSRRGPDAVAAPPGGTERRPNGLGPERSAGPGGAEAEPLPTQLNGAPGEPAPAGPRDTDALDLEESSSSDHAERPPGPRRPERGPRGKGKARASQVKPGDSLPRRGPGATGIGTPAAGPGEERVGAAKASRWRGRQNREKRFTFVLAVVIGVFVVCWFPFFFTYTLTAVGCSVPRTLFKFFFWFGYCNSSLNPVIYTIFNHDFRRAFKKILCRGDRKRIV

[3] = biological target: ADRb1 (β1 adrenergic receptor) (Homo sapiens, UniProt P08588); experiment: BRET-based G protein dissociation assay; type: cell-based
ADRb1 (β1 adrenergic receptor), sequence (P08588 whole entry): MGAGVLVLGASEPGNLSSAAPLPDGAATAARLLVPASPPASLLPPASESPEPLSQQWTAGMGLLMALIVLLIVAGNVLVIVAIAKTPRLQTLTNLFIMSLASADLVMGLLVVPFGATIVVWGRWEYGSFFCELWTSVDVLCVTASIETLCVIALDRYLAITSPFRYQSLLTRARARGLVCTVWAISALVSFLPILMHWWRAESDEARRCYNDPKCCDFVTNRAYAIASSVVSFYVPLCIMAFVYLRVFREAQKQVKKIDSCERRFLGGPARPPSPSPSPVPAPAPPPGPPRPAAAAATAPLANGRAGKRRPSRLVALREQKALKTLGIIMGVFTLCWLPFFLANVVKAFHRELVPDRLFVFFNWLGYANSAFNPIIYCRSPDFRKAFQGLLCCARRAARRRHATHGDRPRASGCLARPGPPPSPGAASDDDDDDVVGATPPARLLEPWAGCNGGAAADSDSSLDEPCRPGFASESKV

[4] = biological target: CHRM5 (M5 muscarinic receptor) (Homo sapiens, UniProt P08912); experiment: BRET-based G protein dissociation assay; type: cell-based
CHRM5 (M5 muscarinic receptor), sequence (P08912 whole entry): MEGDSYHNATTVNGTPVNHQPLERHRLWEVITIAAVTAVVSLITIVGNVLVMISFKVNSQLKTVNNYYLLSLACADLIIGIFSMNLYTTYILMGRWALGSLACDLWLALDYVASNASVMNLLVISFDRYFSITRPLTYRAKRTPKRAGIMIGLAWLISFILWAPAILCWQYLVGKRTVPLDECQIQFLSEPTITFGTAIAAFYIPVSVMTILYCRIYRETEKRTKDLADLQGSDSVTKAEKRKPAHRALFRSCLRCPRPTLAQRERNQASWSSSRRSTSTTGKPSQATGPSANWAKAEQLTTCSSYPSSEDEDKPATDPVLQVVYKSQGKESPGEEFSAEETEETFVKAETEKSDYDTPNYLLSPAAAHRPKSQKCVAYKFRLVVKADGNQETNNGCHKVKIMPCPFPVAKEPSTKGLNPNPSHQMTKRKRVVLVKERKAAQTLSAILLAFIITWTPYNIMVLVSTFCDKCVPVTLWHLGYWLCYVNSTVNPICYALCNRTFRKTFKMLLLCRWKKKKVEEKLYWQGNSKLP

mice = experiment: Tolerance after repeated dosing, HTR to DOI challenge; type: in vivo, mouse; conditions: IP once daily 7 days: DOI 10 mg/kg/day, E559 polymorph 3 mg/kg/day; DOI 1 mg/kg challenge 24 hours later
Description: To determine if repeated dosing of the “E559 polymorph” can induce tolerance in vivo, HTR experiment described in Examples 2 and 5 was repeated where mice received IP injections of vehicle, DOI (10 mg/kg/day), or the “E559 polymorph” (3 mg/kg/day; once daily for 7 consecutive days) and were then challenged with DOI (1 mg/kg) 24 hours later. Data shown in FIG. 22 are group means±standard deviation for the entire 60 minutes test session. Asterisks indicate statistical significances compared to the Vehicle control (Vehicle was saline).

DVS hygroscopicity = type: physicochemical; conditions: for DVS (hold at 75% RH) mass increase: crude material, 75% relative humidity, ~5 hr run time
5-HT2A receptor = 5-HT2A receptor (Homo sapiens, UniProt P28223)
5-HT2A receptor, sequence (P28223 whole entry): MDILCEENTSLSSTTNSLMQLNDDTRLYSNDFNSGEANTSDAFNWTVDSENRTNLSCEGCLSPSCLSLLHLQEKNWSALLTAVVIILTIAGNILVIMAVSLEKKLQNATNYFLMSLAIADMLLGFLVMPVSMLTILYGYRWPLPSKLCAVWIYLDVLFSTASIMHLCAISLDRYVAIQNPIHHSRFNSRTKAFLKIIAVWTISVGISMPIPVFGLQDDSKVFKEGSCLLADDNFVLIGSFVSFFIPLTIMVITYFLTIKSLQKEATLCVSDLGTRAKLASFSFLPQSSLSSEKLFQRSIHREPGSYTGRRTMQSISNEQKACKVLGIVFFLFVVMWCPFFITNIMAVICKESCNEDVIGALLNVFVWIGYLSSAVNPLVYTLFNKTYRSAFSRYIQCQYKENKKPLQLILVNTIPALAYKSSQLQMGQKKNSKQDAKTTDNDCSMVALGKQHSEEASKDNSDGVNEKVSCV

5-HT6 = 5-HT6 (Homo sapiens, UniProt P50406); experiment: Functional assay (cAMP); type: cell-based; design: expressed in transfected cells; host or cells: HEK-293
5-HT6, sequence (P50406 whole entry): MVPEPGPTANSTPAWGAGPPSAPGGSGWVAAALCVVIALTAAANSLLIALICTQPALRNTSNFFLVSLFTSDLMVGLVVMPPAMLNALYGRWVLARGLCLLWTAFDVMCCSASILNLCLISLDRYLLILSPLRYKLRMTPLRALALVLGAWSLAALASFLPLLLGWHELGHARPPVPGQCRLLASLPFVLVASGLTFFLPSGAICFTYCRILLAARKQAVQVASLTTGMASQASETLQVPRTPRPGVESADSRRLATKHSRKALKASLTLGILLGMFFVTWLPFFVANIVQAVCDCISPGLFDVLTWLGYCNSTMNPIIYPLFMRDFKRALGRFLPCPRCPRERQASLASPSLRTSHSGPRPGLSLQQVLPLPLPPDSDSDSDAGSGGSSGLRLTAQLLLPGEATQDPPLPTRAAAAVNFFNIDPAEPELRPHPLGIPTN
Description: Neuro-receptor binding and functional effects of the “E559 polymorph” was examined by analyzing binding affinity [Ki (nM)], functional agonist activity [EC50 (nM)], and functional antagonist activity [IC50 (nM)] against a panel of key receptors in neurophysiological disorders. Binding and functional assays were performed at “E559 polymorph” concentrations of 0.0003, 0.003, 0.01, 0.03, 0.1, 0.3, 1, and 10 μM. In binding assays, cell membrane homogenates, expressing each receptor target, were incubated with the corresponding radio-ligand in absence or presence of several concentration of the “E559 polymorph” compound. The measurement of binding affinity of the “E559 polymorph” is represented in TABLE XIII by Ki (nM) which was calculated as percent inhibition of the binding of a radioactively labeled reference ligand at each receptor. In functional assays the HEK-293 cells expressing each receptor target were suspended in buffer and distribute in microplates and incubated for 30 minutes at room temperature or 37° C. in the presence of buffer alone (basal control), the reference agonist or antagonist, or the “E559 polymorph. Following incubation, the cells were lysed and the appropriate fluorescent probe (Ca2+ flux, cAMP, or IP1) were added for 60 minutes to measure the fluorescence transfer at the appropriate wavelength using a microplate reader. The cellular agonist effect (EC50) was calculated as a percent of control response to a known reference agonist and the cellular antagonist effect (IC50) was calculated as a percent inhibition of control reference agonist response for each receptor.
The functional agonist activity [EC50 (nM), Emax], and functional antagonist activity [IC50 (nM)] of the 5R:8S stereoisomer of the “E559 polymorph” (5R:8S E558) was compared with the “E559 polymorph” (a 5R:8R stereoisomer) at selected serotonin receptors. The assays were performed as described in Example 6.

D5 dopamine receptor, sequence (P21918 whole entry): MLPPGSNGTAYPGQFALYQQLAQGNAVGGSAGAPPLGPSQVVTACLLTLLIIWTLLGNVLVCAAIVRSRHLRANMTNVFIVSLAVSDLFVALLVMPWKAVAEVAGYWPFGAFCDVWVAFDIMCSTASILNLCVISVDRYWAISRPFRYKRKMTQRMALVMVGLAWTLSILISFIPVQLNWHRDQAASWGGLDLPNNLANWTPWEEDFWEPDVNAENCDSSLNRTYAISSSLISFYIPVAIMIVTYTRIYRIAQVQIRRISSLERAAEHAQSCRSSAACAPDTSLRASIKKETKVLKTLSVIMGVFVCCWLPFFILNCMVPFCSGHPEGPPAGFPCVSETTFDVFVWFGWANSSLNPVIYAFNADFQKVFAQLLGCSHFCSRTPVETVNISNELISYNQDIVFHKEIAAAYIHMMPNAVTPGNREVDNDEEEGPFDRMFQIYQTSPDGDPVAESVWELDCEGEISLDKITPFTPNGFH
D1 dopamine receptor, sequence (P21728 whole entry): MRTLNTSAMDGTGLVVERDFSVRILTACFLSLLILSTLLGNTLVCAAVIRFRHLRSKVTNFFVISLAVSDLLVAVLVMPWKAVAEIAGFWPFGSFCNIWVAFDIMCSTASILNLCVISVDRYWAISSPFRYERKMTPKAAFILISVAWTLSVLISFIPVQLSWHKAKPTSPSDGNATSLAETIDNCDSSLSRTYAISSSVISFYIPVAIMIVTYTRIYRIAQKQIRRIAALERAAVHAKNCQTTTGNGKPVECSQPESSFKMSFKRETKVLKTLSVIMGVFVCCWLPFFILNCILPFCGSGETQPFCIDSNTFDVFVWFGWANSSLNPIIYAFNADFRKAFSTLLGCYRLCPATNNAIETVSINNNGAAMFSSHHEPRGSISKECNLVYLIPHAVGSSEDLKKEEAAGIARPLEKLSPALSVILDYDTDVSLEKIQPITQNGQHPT

Q: For CCN(CC)C(=O)[C@@H]1C=C2c3cccc4[nH]c(Br)c(c34)C[C@H]2N(C)C1 [E559, (5R, 8R)-2-Bromo-9,10-didehydro-N,N-diethyl-6-methylergoline-8-carboxamide hemi-D-tartrate], which EC50 (D1 dopamine receptor) is on record?
A: 0.12 nM

Q: And the Kb (D1 dopamine receptor)?
A: 32.9 nM

Q: And the EC50 (D5 dopamine receptor)?
A: 3.75 nM

Q: And the Emax (D5 dopamine receptor)?
A: 15.6%

Q: What about the Kb (D5 dopamine receptor) of the same molecule?
A: 25.1 nM

Q: And the EC50 [1]?
A: 25 nM

Q: What about the Kb [1] of the same molecule?
A: 56.9 nM

Q: What about the EC50 [2] of the same molecule?
A: 282 nM

Q: And the Kb [2]?
A: 11.9 nM

Q: And the EC50 [3]?
A: > 10000 nM

Q: And the Kb [3]?
A: 95.2 nM

Q: What about the EC50 [4] of the same molecule?
A: 5820 nM

Q: And the “tolerance (tachyphylaxis) after repeated dosing, HTR count on DOI challenge” value (mice)?
A: no tolerance was observed

Q: And the “DVS (0-90-0 2 cycles) max water absorbed” value (DVS hygroscopicity; 90% RH exposure, ~24 hr run time, listed as D-Tartrate)?
A: absorbed max 7% water

Q: And the “DVS (hold at 75% RH) mass increase” value (DVS hygroscopicity)?
A: about 3.4%

Q: And the “DVS (hold at 75% RH) mass increase” value (DVS hygroscopicity; listed as D-Tartrate)?
A: 3.4% mass increase

Q: What about the “functional (agonist) activity at 5-HT2A” value (5-HT2A receptor; FIG. 15, FIG. 16A/B) of the same molecule?
A: potent partial agonist of 5-HT2A

Q: What about the “antagonism of 5-HT activation of 5-HT2A” value (5-HT2A receptor; Gq dissociation and β-arrestin2 recruitment, FIG. 17A/B) of the same molecule?
A: antagonizes the 5-HT activation

Q: And the EC50 (5-HT6)?
A: 0.5 nM

Q: What about the Emax (5-HT6; cAMP, ligand 5-HT, read-out: Functional Assay (agonist) Emax) of the same molecule?
A: 80.1%

Q: For CCN(CC)C(=O)[C@@H]1C=C2c3cccc4[nH]cc(c34)C[C@H]2N(C)C1 [LSD, lysergic acid diethylamide, reference compound], which EC50 (D1 dopamine receptor) is on record?
A: 108 nM

Q: And the Emax (D1 dopamine receptor)?
A: 41.3%

Q: And the EC50 (D5 dopamine receptor; agonist mode, read-out: EC50)?
A: 166 nM

Q: And the Emax (D5 dopamine receptor; percentage of the reference ligand-induced maximal response, read-out: Emax)?
A: 70.7%

Q: What about the EC50 ([1]; agonist mode, read-out: EC50) of the same molecule?
A: 38.5 nM

Q: And the Emax ([1]; percentage of the reference ligand-induced maximal response)?
A: 24.8%

Q: What about the EC50 ([4]; agonist mode, read-out: EC50) of the same molecule?
A: > 10000 nM

Q: And the “functional (agonist) activity at 5-HT2A” value (5-HT2A receptor)?
A: potent almost full 5-HT2A agonist

From patent publication US12331051B2 (priority 2021, dated 2025)
